Experimental data as given in ChEMBL document CHEMBL1201862, “PubChem BioAssay data set” (2004).
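How tested: cells in 96-well plates exposed to compound for 48 hours at five concentrations. Here, GI50 denotes the concentration required for 50% inhibition of growth.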 Activity calls are given as the source filed them. Rule as the data show it: active = GI50 up to about 1.1 µM and inactive = higher.

Key:
Assay in all cases: inhibition of tumour cell growth, NCI panel, 48 h
SW-620 = system: SW-620
OVCAR-8 = system: OVCAR-8
NCI-H23 = system: NCI-H23
MOLT-4 = system: MOLT-4
KM12 = system: KM12
IGROV-1 = system: IGROV-1
SNB-19 = system: SNB-19
SNB-75 = system: SNB-75
MDA-MB-231 = system: MDA-MB-231
SR = system: SR
NCI/ADR-RES = system: NCI/ADR-RES
TK-10 = system: TK-10
A549 = system: A549
M14 = system: M14
SK-MEL-28 = system: SK-MEL-28
MDA-MB-435 = system: MDA-MB-435
HT-29 = system: HT-29
SF-539 = system: SF-539
SN12C = system: SN12C
HOP-92 = system: HOP-92

Measured: GI50

C[C@@H]1CC(=O)[C@@]2(C)[C@](O)(CCC3O[C@]32C)[C@@]12CC(c1ccoc1)OC2=O (stereo partly specified)
inactive: SW-620 37.4 µM | OVCAR-8 > 100 µM | NCI-H23 > 100 µM | MOLT-4 23 µM | KM12 > 100 µM | IGROV-1 > 100 µM | SNB-19 > 100 µM | SNB-75 23.7 µM | MDA-MB-231 > 100 µM | SR 30.3 µM | NCI/ADR-RES 46.2 µM | TK-10 > 100 µM | A549 > 100 µM | M14 72.4 µM | SK-MEL-28 > 100 µM | MDA-MB-435 42 µM | HT-29 48.5 µM | SF-539 > 100 µM

Cc1c(C2CCSc3ccccc3N2)sc2ccccc12 (stereo unspecified)
inactive: SW-620 > 100 µM | OVCAR-8 > 100 µM | NCI-H23 > 100 µM | MOLT-4 77.3 µM | SN12C > 100 µM | KM12 65.6 µM | IGROV-1 > 100 µM | SNB-19 > 100 µM | SNB-75 98.2 µM | HOP-92 > 100 µM | MDA-MB-231 > 100 µM | NCI/ADR-RES 46 µM | TK-10 > 100 µM | A549 99.8 µM | M14 > 100 µM | SK-MEL-28 > 100 µM | MDA-MB-435 35.2 µM | HT-29 54.8 µM | SF-539 > 100 µM

C[C@]12CC[C@@H]3c4cc(Br)c(O)c(Br)c4CC[C@H]3[C@@H]1CCC2=O
inactive: SW-620 32.9 µM | OVCAR-8 19 µM | NCI-H23 13.8 µM | MOLT-4 20.6 µM | SN12C 27.7 µM | KM12 63.7 µM | IGROV-1 38.1 µM | SNB-75 16.1 µM | HOP-92 34.9 µM | MDA-MB-231 32.2 µM | NCI/ADR-RES 12.5 µM | TK-10 17.6 µM | A549 17.3 µM | M14 39.2 µM | SK-MEL-28 31 µM | MDA-MB-435 26.2 µM | HT-29 46.1 µM | SF-539 19.9 µM

O=C(CC(=O)n1nc(-c2ccccc2)c(/N=N/c2ccc(Cl)cc2)c1-c1ccccc1)Nc1cccc(Cl)c1
inactive: SW-620 > 100 µM | OVCAR-8 81.1 µM | NCI-H23 > 100 µM | MOLT-4 35.9 µM | SN12C 60.5 µM | KM12 > 100 µM | IGROV-1 5.25 µM | SNB-19 41.1 µM | SNB-75 43.3 µM | HOP-92 > 100 µM | MDA-MB-231 54.7 µM | SR 37.8 µM | TK-10 > 100 µM | A549 > 100 µM | M14 70.1 µM | SK-MEL-28 > 100 µM | HT-29 75.7 µM

CC(C)(O)C1CC(=O)C(C)(C2C(O)CC3(C)C4CC=C5C(CCC(O)C5(C)C)C4(C)C(=O)CC23C)O1 (stereo unspecified)
inactive: SW-620 > 100 µM | OVCAR-8 > 100 µM | NCI-H23 > 100 µM | MOLT-4 > 100 µM | SN12C > 100 µM | KM12 > 100 µM | IGROV-1 > 100 µM | SNB-19 > 100 µM | SNB-75 42.2 µM | HOP-92 91.8 µM | MDA-MB-231 > 100 µM | TK-10 > 100 µM | A549 > 100 µM | M14 > 100 µM | SK-MEL-28 > 100 µM | MDA-MB-435 > 100 µM | HT-29 > 100 µM | SF-539 > 100 µM

CCOC(=O)c1cc(Br)c(-c2onc(C)c2Br)n1C
inactive: SW-620 49.7 µM | OVCAR-8 63.4 µM | NCI-H23 47.8 µM | MOLT-4 15 µM | SN12C 23.1 µM | KM12 21.8 µM | IGROV-1 59.8 µM | SNB-19 46.2 µM | SNB-75 18.1 µM | MDA-MB-231 24.2 µM | SR 20.5 µM | NCI/ADR-RES 37.2 µM | TK-10 66.8 µM | A549 23.3 µM | M14 40.6 µM | SK-MEL-28 > 100 µM | MDA-MB-435 34.8 µM | SF-539 > 100 µM

Cc1ccc(S(=O)(=O)N(CCN2C(=O)c3ccccc3C2=O)c2cc3c4c(c2)Oc2cc(N(CCN5C(=O)c6ccccc6C5=O)S(=O)(=O)c5ccc(C)cc5)cc5c2C4(C)c2c(cc(N(CCN4C(=O)c6ccccc6C4=O)S(=O)(=O)c4ccc(C)cc4)cc2O5)O3)cc1
inactive: SW-620 > 100 µM | OVCAR-8 > 100 µM | MOLT-4 > 100 µM | SN12C > 100 µM | KM12 > 100 µM | IGROV-1 57.3 µM | SNB-19 > 100 µM | SNB-75 > 100 µM | MDA-MB-231 4.89 µM | SR > 100 µM | NCI/ADR-RES > 100 µM | TK-10 > 100 µM | A549 > 100 µM | M14 35.7 µM | SK-MEL-28 > 100 µM | MDA-MB-435 > 100 µM | HT-29 > 100 µM | SF-539 > 100 µM
